≈ marks a conversion by molar mass, not a printed value.

The test system of this test is Mycobacterium tuberculosis. As to the kind of experiment: Antimycobacterial activity against isoniazid, rifampicin and ethambuto-resistant Mycobacterium tuberculosis using compound level ranging from 0.3125 to 5 ug/mL after 7 days by resazurin reduction test. The class given is functional. The conditions noted are these: 168 h.
With `O=C(NNC(=S)Nc1cccc(Cl)c1)c1cnc2c(C(F)(F)F)cccc2c1O`, inhibition of growth (MIC) required 25 µg/mL (≈ 56.7 µM). For `COc1ccc(NC(=O)NNC(=O)c2cnc3c(C(F)(F)F)cccc3c2O)cc1`, the MIC was 12.5 µg/mL (≈ 29.7 µM). Turning to `Cc1ccc(NC(=O)NNC(=O)c2cnc3c(C(F)(F)F)cccc3c2O)cc1`, 25 µg/mL (≈ 61.8 µM) was the least that counted as inhibitory (MIC).

Consider `CO[C@H]1/C=C/O[C@@]2(C)Oc3c(C)c(O)c4c(O)c(c(/C=N/N5CCN(C)CC5)c(O)c4c3C2=O)NC(=O)/C(C)=C\C=C\[C@H](C)[C@H](O)[C@@H](C)[C@@H](O)[C@@H](C)[C@H](OC(C)=O)[C@@H]1C` [RIFAMPIN], for which the MIC came out at 25 µg/mL (≈ 30.4 µM).

`O=C(N/N=C/c1ccc(OC(F)(F)C(F)F)cc1)c1cnc2c(C(F)(F)F)cccc2c1O` gave an MIC of 25 µg/mL (≈ 52.6 µM).

`O=C(NNC(=S)Nc1ccccc1F)c1cnc2c(C(F)(F)F)cccc2c1O` returned an MIC of 12.5 µg/mL (≈ 29.5 µM).

For `Cc1cc(C)cc(NC(=O)NNC(=O)c2cnc3c(C(F)(F)F)cccc3c2O)c1`, the MIC was greater than 50 µg/mL. The result for `NNC(=O)c1ccncc1` [ISONIAZID] reads 12.5 µg/mL (≈ 91.1 µM); that for `O=C(NNC(=O)c1cnc2c(C(F)(F)F)cccc2c1O)Nc1cccc(Cl)c1`, 25 µg/mL (≈ 58.9 µM); that for `Cn1cccc1/C=N\NC(=O)c1cnc2c(C(F)(F)F)cccc2c1O`, 6.25 µg/mL (≈ 17.3 µM).

`COC(=O)Cc1cc(/C=N/NC(=O)c2cnc3c(C(F)(F)F)cccc3c2O)co1` returned an MIC greater than 50 µg/mL.

Turning to `Cc1ccc(/C=N/NC(=O)c2cnc3c(C(F)(F)F)cccc3c2O)cc1`, the MIC was greater than 50 µg/mL. Next, `O=C(N/N=C/c1cc(F)ccc1O)c1cnc2c(C(F)(F)F)cccc2c1O`: greater than 50 µg/mL; `COc1ccc(/C=N/NC(=O)c2cnc3c(C(F)(F)F)cccc3c2O)cc1O`: greater than 50 µg/mL; `COc1ccc(/C=N/NC(=O)c2cnc3c(C(F)(F)F)cccc3c2O)cc1`: 12.5 µg/mL (≈ 32.1 µM). Compound `CCc1ccc(NC(=O)NNC(=O)c2cnc3c(C(F)(F)F)cccc3c2O)cc1` gave an MIC greater than 50 µg/mL. The result for `COc1ccc(NC(=S)NNC(=O)c2cnc3c(C(F)(F)F)cccc3c2O)cc1` reads greater than 50 µg/mL. The result for `Cc1[nH]cnc1/C=N/NC(=O)c1cnc2c(C(F)(F)F)cccc2c1O` reads greater than 50 µg/mL; that for `COc1ccc2[nH]cc(/C=N/NC(=O)c3cnc4c(C(F)(F)F)cccc4c3O)c2c1`, 6.25 µg/mL (≈ 14.6 µM). Next, `O=C(N/N=C/c1cnc[nH]1)c1cnc2c(C(F)(F)F)cccc2c1O`: greater than 50 µg/mL; `COc1ccc(/C=N/NC(=O)c2cnc3c(C(F)(F)F)cccc3c2O)c(F)c1`: 6.25 µg/mL (≈ 15.3 µM).

`Cn1nnc2cc(/C=N\NC(=O)c3cnc4c(C(F)(F)F)cccc4c3O)ccc21` came in with an MIC greater than 50 µg/mL.

`Cc1cccc2c(/C=N/NC(=O)c3cnc4c(C(F)(F)F)cccc4c3O)c[nH]c12` yielded an MIC of 6.25 µg/mL (≈ 15.2 µM).

The values above are taken from ChEMBL document CHEMBL1909590, “Design, synthesis and docking studies of new quinoline-3-carbohydrazide derivatives as antitubercular agents” (2011).
